US20160002250A1, “POLYMORPHS AND SALTS OF A COMPOUND” (FORUM Pharmaceuticals Inc., priority 2013, published 2016)
≈ marks a conversion by molar mass, not a printed value. Entries after “also recorded” stand apart in the source; their conditions may differ. Marks after values point to notes of the source that are not given here.

Columns and labels:
[1] = Solubility in solvents, slow cooling and evaporation experiments; format: physicochemical; settings: 50° C.
Experimental: 4-(4-(imidazo[1,2-b]pyridazin-2-ylmethoxy)phenyl)-2,2-dimethyl-5-(pyridin-4-yl)furan-3(2H)-one (Form 2 or Form 1; ca. 10 mg per experiment) was weighed into vials, and the stated solvents were added, in increasing portions at 50° C. With each addition, the vials were allowed to shake for ˜20 minutes. Any solutions observed were allowed to cool to room temperature. Those experiments that remained as solutions were pin-holed to allow the solvent to slowly evaporate. Any suspensions observed were subjected to heat/cool cycles, between room temperature and 50° C., four hours at each condition.

[2] = Thermodynamic aqueous solubility; settings: for solubility thermodynamic at 24 h: 25 °C, thermodynamic from solid
Experimental: The suspension was equilibrated at 25° C. for 24 hours then the pH was measured and adjusted with either HCl or NaOH if it deviated by more than 0.3 units from the target pH. The suspension was then filtered through a glass fiber C filter. […] Different volumes of the standard, diluted and undiluted sample solutions were injected.
Analysis was performed on an Agilent HP1100 series system equipped with a diode array detector and using ChemStation software. The following buffers were prepared to carry out the solubility analyses:
pH 1.2—made up by adding 85.0 mL of 0.2M HCl(aq) to 50 mL of 0.2M KCl(aq) and making up to 200 mL. pH 4.5—made up by adding 2.99 g of NaC2H3O2.3H2O to 14.0 mL of 2N AcOH(aq) and making up to 1000 mL. pH 7.4—made up adding 39.1 mL of 0.2M NaOH(aq) to 50.0 mL of a 0.2M KH2PO4 and making up to 200 mL.

[3] = Six-week stability study (elevated humidity, 60° C., room conditions); format: physicochemical
Experimental: The stability to elevated humidity and air oxidation was investigated for both Form 1 and Form 2 of the Free Base. Samples of both materials were stored at 40° C./75% RH, 25° C./96% RH, 60° C. in contact with air and ambient conditions (25° C. in contact with air) for six weeks, and analyses by XRPD, HPLC and ^1H-NMR (for oxidation study samples only) were carried out weekly.

[4] = Storage at elevated humidity; format: physicochemical; settings: 40° C./75% RH, one week
Experimental: Samples were place on a glass slide and sealed in an airtight plastic container, along with an open beaker of saturated aqueous salt solution, and stored at a known regulated temperature. A saturated solution of NaCl was used to obtain a relative humidity of 75% at 40° C., whilst a saturated solution of potassium nitrate was used to provide 92% RH at 25° C.

[5] = Gravimetric Vapour Sorption (GVS); format: physicochemical
Experimental: Sorption isotherms were obtained using a SMS DVS Intrinsic moisture sorption analyzer, controlled by DVS Intrinsic Control software v1.0.0.30. The sample temperature was maintained at 25° C. by the instrument controls. The humidity was controlled by mixing streams of dry and wet nitrogen, with a total flow rate of 200 ml/min. The relative humidity was measured by a calibrated Rotronic probe (dynamic range of 1.0-100% RH), located near the sample. The weight change, (mass relaxation) of the sample as a function of % RH was constantly monitored by the microbalance (accuracy ±0.005 mg).
Typically 5-30 mg of sample was placed in a tared mesh stainless steel basket under ambient conditions. The sample was loaded and unloaded at 40% relative humidity (RH) and 25° C. (typical room conditions). A moisture sorption isotherm was performed as outlined below in Table 4 (2 scans giving 1 complete cycle). The standard isotherm was performed at 25° C. at 10% RH intervals over a 0-90% RH range. Data analysis was undertaken in Microsoft Excel using DVS Analysis Suite. The sample was recovered after completion of the isotherm and re-analyzed by XRPD.

CC1(C)OC(c2ccncc2)=C(c2ccc(OCc3cn4ncccc4n3)cc2)C1=O [Form 2, 4-(4-(imidazo[1,2-b]pyridazin-2-ylmethoxy)phenyl)-2,2-dimethyl-5-(pyridin-4-yl)furan-3(2H)-one]
Solubility (volumes) ([1]; BuOAc, 50 volumes): Almost | Solubility (volumes) ([1]; BuOAc, 100 volumes): Almost | Solubility (volumes) ([1]; Ethanol, 50 volumes): Almost | Solubility (volumes) ([1]; IPA, 50 volumes): Almost | Solubility (volumes) ([1]; IPA, 100 volumes): Almost | Solubility (volumes) ([1]; IPAc, 50 volumes): Almost | Solubility (volumes) ([1]; IPAc, 100 volumes): Almost | Solubility (volumes) ([1]; MEK, 20 volumes): Almost | Solubility (volumes) ([1]; MIBK, 50 volumes): Almost | Solubility (volumes) ([1]; MIBK, 100 volumes): Almost | Solubility (volumes) ([1]; MeCN/H2O, 10 volumes): Almost | Solubility (volumes) ([1]; Methanol, 10 volumes): Almost | Solubility (volumes) ([1]; Nitromethane, 10 volumes): Almost | Solubility (volumes) ([1]; Toluene, 50 volumes): Almost | pH of saturated unfiltered solution ([2]; DI water): 7.23 | solubility thermodynamic at 24 h ([2]; deionized water, water, DI water, 24 hours): 40 µg/mL (≈ 97 µM) | thermodynamic aqueous solubility ([2]; deionized water, at pH 7.67 (Form 1), pH 7.23 (Form 2)): about 0.04 mg/ml | pH of saturated unfiltered solution ([2]; pH 1.2 buffer): 1.73 | solubility thermodynamic at 24 h ([2]; pH 1.2 buffer, pH 1.2, simulated gastric fluid, 24 hours): 37800 µg/mL (≈ 91600 µM) | pH of saturated unfiltered solution ([2]; pH 4.5 buffer): 4.65 | solubility thermodynamic at 24 h ([2]; pH 4.5 buffer, pH 4.5, aqueous buffer, 24 hours): 50 µg/mL (≈ 121 µM) | pH of saturated unfiltered solution ([2]; pH 7.4 buffer): 7.46 | Thermodynamic solubility ([2]; pH 7.4 buffer, 25° C., 24 hours): 40 µg/mL | Purity (area %) ([3]; 25° C./96% RH, Week 1): 99.3 area % | Purity (area %) ([3]; 25° C./96% RH, Week 2): 98.9 area % | Purity (area %) ([3]; 25° C./96% RH, Week 3): 98.9 area % | Purity (area %) ([3]; 25° C./96% RH, Week 4): 98.9 area % | Purity (area %) ([3]; 25° C./96% RH, Week 5, samples run after 24 hours in solution): 98.0* area % | Purity (area %) ([3]; 25° C./96% RH, Week 6): 98.9 area % | Stability to elevated humidity and air oxidation ([3]; 40° C./75% RH, 25° C./96% RH, 60° C. and ambient conditions, six weeks, XRPD, HPLC, 1H-NMR): No significant changes; also recorded: no significant degradation | Purity (area %) ([3]; 40° C./75% RH, Week 1): 99.5 area % | Purity (area %) ([3]; 40° C./75% RH, Week 2): 99.1 area % | Purity (area %) ([3]; 40° C./75% RH, Week 3): 99.2 area % | Purity (area %) ([3]; 40° C./75% RH, Week 4): 99.1 area % | Purity (area %) ([3]; 40° C./75% RH, Week 5, samples run after 24 hours in solution): 98.8* area % | Purity (area %) ([3]; 40° C./75% RH, Week 6): 98.9 area % | Purity (area %) ([3]; 60° C., Week 1): 98.9 area % | Purity (area %) ([3]; 60° C., Week 2): 99.1 area % | 1H-NMR ([3]; 60° C., Week 4): Very weak | Purity (area %) ([3]; 60° C., Week 4): 99.0 area % | Purity (area %) ([3]; 60° C., Week 5, samples run after 24 hours in solution): 98.6* area % | Purity (area %) ([3]; 60° C., Week 6): 99.0 area % | Purity (area %) ([3]; Room conditions, Week 1): 99.2 area % | Purity (area %) ([3]; Room conditions, Week 2): 98.6 area % | Purity (area %) ([3]; Room conditions, Week 4): 98.6 area % | Purity (area %) ([3]; Room conditions, Week 5, samples run after 24 hours in solution): 98.2* area % | Purity (area %) ([3]; Room conditions, Week 6): 98.2 area % | Stability at 60° C. in contact with air ([3]; after 6 weeks, XRPD and HPLC): No significant changes by XRPD or HPLC analyses after | Stability at room conditions (25° C. in contact with air) ([3]; after 6 weeks, XRPD and HPLC): No significant changes by XRPD or HPLC analyses after | Stability at 25° C./96% RH ([3]; after 6 weeks, XRPD and purity): No significant changes by XRPD or purity after 6 weeks | Stability at 40° C./75% RH ([3]; after 6 weeks, XRPD and purity): No significant changes by XRPD or purity after 6 weeks | Stability to humidity ([3]; elevated humidity and temperature conditions, after 6 weeks): No changes observed at elevated

CC1(C)OC(c2ccncc2)=C(c2ccc(OCc3cn4ncccc4n3)cc2)C1=O.Cc1ccc(S(=O)(=O)O)cc1.Cc1ccc(S(=O)(=O)O)cc1 [bis-tosylate]
Form change on storage [4]: no form change | Solubility (mg mL free form equivalent) ([2]; pH point 1.2): 32.29 mg mL free form equivalent | pH of unfiltered saturated solution ([2]; pH point 1.2): 1.21 | Solubility (mg mL free form equivalent) ([2]; pH point 4.5): 0.05 mg mL free form equivalent | pH of unfiltered saturated solution ([2]; pH point 4.5): 4.52 | Solubility (mg mL free form equivalent) ([2]; pH point 7.4): 0.05 mg mL free form equivalent | pH of unfiltered saturated solution ([2]; pH point 7.4): 7.40 | Solubility (mg mL free form equivalent) ([2]; pH point unadjusted aqueous): 29.07 mg mL free form equivalent | pH of unfiltered saturated solution ([2]; pH point unadjusted aqueous): 2.00 | Form change by XRPD during GVS ([5]; RH 0% to 90%): no accompanying form change | GVS water uptake (% of mass) ([5]; RH from 0% to 90%, 25° C.): 3.1%
